Publication PMC9820430, “New Affordable Methods for Large-Scale Isolation of Major Olive Secoiridoids and Systematic Comparative Study of Their Antiproliferative/Cytotoxic Effect on Multiple Cancer Cell Lines of Different Cancer Origins” (International Journal of Molecular Sciences, 2022)
Marks after values point to notes of the source that are not given here.

What was measured:
Experiment in all cases: EdU incorporation cell proliferation assay, 24 h
Type in all cases: cell-based, human
[1] = system: PANC-1; conditions: for % Inhibition ± SE of cell proliferation: 24 h at EC50, normalized with the control; for % EdU +ve ± SE (S-phase cells): 24 h treatment at EC50 concentration
Method: (§1) For this purpose, ten cancer cell lines (i.e., MDA-MB 231, SK-BR-3, MCF-7, A2058, SK-MEL-28, AGS, HepG-2, PANC-1, H1299 and Hela) originating from breast, melanoma, stomach, hepatic, pancreatic, lung and cervical tumors were analyzed in parallel with control samples (i.e., the same cells treated only with 0.2% (v/v) DMSO). […] Subsequently, the treated cells were allowed to incorporate 5-ethynyl-2′-deoxyuridine (EdU) into replicating DNA according to the protocol described in detail in the Experimental Section. EdU, a thymidine analog, can be incorporated into DNA in vivo and detected later by using copper-catalyzed azide–alkyne cycloaddition (click reaction) without prior DNA denaturation. The pool of cells in the S phase can be then easily detected by fluorescence (FL) microscopy or by flow cytometry by analyzing the incorporation of EdU in replicating DNA of single cells. In this study, after EdU incorporation, the nuclei of the entire cell population were stained with Hoechst and imaged by confocal microscopy (Experimental Section). EdU-positive nuclei, marked by green FL, as well as the total number of nuclei, marked by blue FL, were enumerated by applying the Icy image analysis algorithm on the digital images acquired by confocal microscopy.
(§2) Human cancer cells were plated onto sterile glass coverslips (10-mm diameter, 5161063, ThermoFisher Scientific, Waltham, MA, USA) in 24-well tissue culture plates, at a density 5 times the density of cells seeded in 96-well plate and at a final medium volume of 500 μL. In order to obtain homogeneous plating, 250 μL of the medium was added directly to the wells already containing coverslips. Using a tip perpendicularly, coverslips were pressed in order to ensure their attachment to the bottom of the well. The cells were then seeded by adding 250 μL of single-cell suspension drop by drop following a cross path. Immediately after seeding, the plate was shaken back and forth at least ten times to achieve homogeneous plating. The cells were allowed to adhere overnight (~16 h) at 37 °C and 5% (v/v) CO2. The next day, a volume of 500 μL fresh medium was added to each well and the treatment with OOPs was initiated by adding directly to the wells 2 μL of OOPs from the 500× stock in DMSO and immediately mixed afterward by pipetting. […] Control cells were prepared under the same experimental conditions using DMSO instead of the OOPs’ solutions in DMSO at the same final concentration (0.2% (v/v) DMSO). […] Each condition was performed in duplicate. After treatment with the OOPs, live proliferating mammalian cells were labeled with 5-ethynyl-2’-deoxyuridine (EdU), a nucleoside analog of thymidine, using the Cell proliferation kit III (EdU-FM, PK-CA724-488FM, Promokine, Heidelberg, Germany). More specifically, a 20 μM EdU solution from a 10 mM stock in DMSO was prepared in a fresh culture medium. Culture supernatant was removed from treated cells to leave only 250 μL. An equal volume of 20 μM EdU solution was added and mixed with the medium to obtain a 10 μΜ EdU final concentration. The treated cells were incubated for the desired time of pulse length (2–4 h) under conditions optimal for each cell type depending on each cell line’s doubling time. Following incubation, cells were washed twice with PBS, then fixed with 4% (w/v) paraformaldehyde in PBS for 15 min at room temperature (RT), and subsequently washed twice with 3% (w/v) BSA for 5 min each time. Cells were permeabilized by incubation (20 min, RT, in the dark) with 0.5% (v/v) Triton-X 100 in PBS. Following permeabilization the cells were washed twice with 3% (w/v) BSA in PBS and incubated for 30 min with the reaction cocktail, according to the instructions of the Cell proliferation kit III (EdU-488; FM). After staining for replicating DNA, the cells were washed three times with 3% (w/v) BSA in PBS, and were then incubated (10 min, at RT) with Hoechst 33342 in PBS (1:10.000) to visualize all the nuclei. […]

[2] = system: MDA-MB 231; conditions: for % Inhibition ± SE of cell proliferation: 24 h at EC50, normalized with the control; for % EdU +ve ± SE (S-phase cells): 24 h treatment at EC50 concentration
Method: as §1, §2

[3] = system: HepG-2; conditions: for % Inhibition ± SE of cell proliferation: 24 h at EC50, normalized with the control; for % EdU +ve ± SE (S-phase cells): 24 h treatment at EC50 concentration
Method: as §1, §2

[4] = system: AGS; conditions: for % Inhibition ± SE of cell proliferation: 24 h at EC50, normalized with the control; for % EdU +ve ± SE (S-phase cells): 24 h treatment at EC50 concentration
Method: as §1, §2

[5] = system: Hela; conditions: for % Inhibition ± SE of cell proliferation: 24 h at EC50, normalized with the control; for % EdU +ve ± SE (S-phase cells): 24 h treatment at EC50 concentration
Method: as §1, §2

[6] = system: SK-MEL-28; conditions: for % Inhibition ± SE of cell proliferation: 24 h at EC50, normalized with the control; for % EdU +ve ± SE (S-phase cells): 24 h treatment at EC50 concentration
Method: as §1, §2

[7] = system: SK-BR-3; conditions: for % Inhibition ± SE of cell proliferation: 24 h at EC50, normalized with the control; for % EdU +ve ± SE (S-phase cells): 24 h treatment at EC50 concentration
Method: as §1, §2

[8] = system: H1299; conditions: for % EdU +ve ± SE (S-phase cells): 24 h treatment at EC50 concentration; for % Inhibition ± SE of cell proliferation: 24 h at EC50, normalized with the control
Method: as §1, §2

Molecule | % Inhibition ± SE of cell proliferation [1] [%] | % EdU +ve ± SE (S-phase cells) [1] [%] | % Inhibition ± SE of cell proliferation [2] [%] | % EdU +ve ± SE (S-phase cells) [2] [%] | % Inhibition ± SE of cell proliferation [3] [%] | % EdU +ve ± SE (S-phase cells) [3] [%] | % Inhibition ± SE of cell proliferation [4] | % EdU +ve ± SE (S-phase cells) [4] | % Inhibition ± SE of cell proliferation [5] [%] | % EdU +ve ± SE (S-phase cells) [5] [%] | % Inhibition ± SE of cell proliferation [6] | % EdU +ve ± SE (S-phase cells) [6] | % Inhibition ± SE of cell proliferation [7] [%] | % EdU +ve ± SE (S-phase cells) [7] [%] | % EdU +ve ± SE (S-phase cells) [8] [%] | % Inhibition ± SE of cell proliferation [8] [%]
ligstroside aglycone [4a,b] | 23.4 ± 2.7 | 22.1 ± 7.2 | 8.2 ± 1.8 | 33.0 ± 2.8 | 27.0 ± 1.1 | 12.0 ± 2.0 | 31.6 ± 2.6% | 14.0 ± 0.5% | 14.1 ± 6.3 | 31.2 ± 4.9 | 4.7 ± 4.6 ^a % | 20.8 ± 5.1 ^a % | 4.8 ± 3.1 | 18.8 ± 1.3 | – | –
C/C=C(/C=O)[C@@H](CC=O)CC(=O)OCCc1ccc(O)cc1 [compound 1, oleocanthal] | – | 23.6 ± 5.8 | – | 29.1 ± 2.3 | – | 26.4 ± 1.5 | – | 16.2 ± 4.4 ^a % | – | – | – | 15.0 ± 4.8 ^a % | – | 9.5 ± 3.9 | 14.0 ± 1.9 | –
COC(=O)C1=COC(C)[C@@H](C=O)[C@@H]1CC(=O)OCCc1ccc(O)c(O)c1 (mixture of isomers) [3a,b, oleuropein aglycone] | 23.6 ± 0.8 | 21.9 ± 5.3 | 21.5 ± 2.1 | 19.7 ± 3.1 | 28.4 ± 0.1 | 10.6 ± 3.1 | 28.9 ± 1.5 ^a % | 18.4 ± 1.5 ^a % | 24.3 ± 2.1 | 20.9 ± 3.5 | 24.7 ± 0.7 ^a % | 0.7 ± 0.3 ^a % | 16.9 ± 1.7 | 6.6 ± 3.5 | 31.9 ± 5.9 | 29.1 ± 6.5
C/C=C(/C=O)[C@@H](CC=O)CC(=O)OCCc1ccc(O)c(O)c1 [compound 2, oleacein] | – | 37.6 ± 7.1 | 15.7 ± 2.4 | 25.5 ± 4.1 | – | – | 31.0 ± 3.5% | 14.7 ± 0.4% | 23.6 ± 7.9 | 21.7 ± 6.5 | 20.3 ± 4.0% | 1.8 ± 0.4% | 16.2 ± 2.4 | 7.4 ± 0.7 | 13.2 ± 3.5 | 47.8 ± 4.1
